Test results as given in patent US9149488B2, “Pharmaceutical composition and use of diethyl (2-cyanoethyl)phosphonate” (Olatec Industries LLC, priority 2013, dated 2015).
Where two headings read alike, the source gives them in different places.

Columns and labels:
[1] = tested on: formalin-induced paw licking
Procedure: The test compound diethyl(2-cyanoethyl)phosphonate (375 mM in vehicle, n=16) and vehicle control (acetone:ethanol 1:1, n=16) were administered topically by submerging the mouse left hind paw in the respective solution for about 30 seconds. The paw was then withdrawn and wiped with tissue to avoid excess dermal drying.
Positive control morphine was administered by subcutaneous injection at 4 mg/kg with a volume of 4 mL/kg to mice (n=16).
Morphine was subcutaneously administered once 15 minutes before formalin injection. The test compounds and vehicle control were topically administered twice (BID), at 90 and 15 minutes before formalin injection.
Following formalin injection, animals were placed in individual cages, and manually observed for 60 minutes. The licking events were recorded in five minute intervals continuously for a total of 40 minutes.
The number of licking events per minute was calculated between 0-10 minutes and 10-40 minutes for vehicle, positive control, and test compound. A two-sample t-test was done to compare the vehicle group with the test compound group. Significance is set at P<0.05 level. The same statistics were done comparing the vehicle group with the positive control group.

[2] = tested on: formalin-induced paw licking; experiment: Formalin test in mice (oral administration); type: in vivo, Male CD-1 mice
Procedure: Formalin test is a model of continuous pain resulting from formalin-induced tissue injury. Nociceptive and inflammatory pain was induced by injection of a dilute formalin solution into the paw, resulting in nocifensive behavior including paw flinching. The formalin model encompasses inflammatory, neurogenic, and central mechanism of pain. The early phase of pain (from 0 to about 10 minutes) is due to nociceptive mechanism and the late phase of pain (from 10-40 minutes) is due to a combination of inflammatory pain and nociceptive mechanism. Pain behavior is assessed using manual paw licking measurements. The endpoints of the study are the number of paw licking events. (Hunskaar et al., Pain, 30:103-114, 1987; Li et al., Molecular Pain, 6:11, 2010)
Male CD-1 mice, about 34 g, were used in the study. Mice had free access to food and water, were maintained on a 12 hour: 12 hour light/dark schedule for the entire duration of the study, and housed in soft bedding five per cage.
Immediately prior to testing (at time 0), mice were restrained in a cloth and injected with 20 μL of a 5% formalin solution, subcutaneously into the dorsal surface of the left hind paw. Vehicle control (n=10, water) and test compound diethyl(2-cyanoethyl)phosphonate (n=9, in water) and were administered by oral gavage with a volume of 10 mL/kg to mice. The amounts of test compound were 10, 30, or 100 mg/kg per dose.
Positive control morphine was administered by subcutaneous injection at 4 mg/kg with a volume of 4 mL/kg to mice (n=10). […] The purpose of morphine is not to serve as a comparison with the test compound.
Morphine was subcutaneously administered once 15 minutes before formalin injection. The test compounds and vehicle control were orally administered twice (BID), at 60 and 15 minutes before formalin injection at time zero.
Following formalin injection, animals were placed in individual cages, and manually observed for 60 minutes. The licking events were recorded in five minute intervals continuously for a total of 60 minutes.
The number of licking events per minute was calculated between 0-10 minutes and 10-40 minutes for vehicle, positive control, and test compound. An ANOVA was done, and if p<0.05, a Dunnett's t test was employed to calculate significant difference between vehicle control and test compound treated groups. A pairwise Student's t test was used to calculate differences between the morphine group and the control group. Significance is set at P<0.05 level.

[3] = tested on: arachidonic acid-induced ear swelling; experiment: Arachidonic acid-induced ear swelling in mice (intraperitoneal administration); type: in vivo; conditions: measured at 90 minutes
Procedure: The protocols of this experiment were similar to Example 3, except the following differences. Test substance diethyl(2-cyanoethyl)phosphonate was dissolved in PBS to generate 1, 3 and 10 mg/mL testing solutions. Vehicle (PBS) at 10 mL/kg and diethyl(2-cyanoethyl)phosphonate at 10 mL/kg (10, 30, and 100 mg/kg) were administered intraperitoneally at 1 hour, and again 15 minutes before arachidonic acid (0.5 mg/ear) challenge. The positive control dexamethasone was administered orally 3 hours before arachidonic acid.
An ANOVA was done, and if p<0.05, a Dunnett's t test was employed to calculate significant difference between vehicle control and treated groups. Significance is set at P<0.05 level.
An ANOVA was done, and if p<0.05, a Dunnett's t test was employed to calculate significant difference between vehicle control and test compound treated groups. A pairwise Student's t test was used to calculate differences between the dexamethasone group and the control group. Significance is set at P<0.05 level.

[4] = tested on: arachidonic acid-induced ear swelling; experiment: Topical arachidonic acid-induced ear swelling model in mice (topical administration); type: in vivo, Male ICR mice
Procedure: Diethyl(2-cyanoethyl)phosphonate, was obtained from Sigma-Aldrich and used in this experiment.
The test compound, indomethacin (positive control), and vehicle (acetone:ethanol/1:1) were evaluated for anti-inflammatory activity in a topical arachidonic acid-induced ear swelling model in mice.
Male ICR mice weighing 22±2 g were used and randomly divided; the test compound and vehicle control had 10 mice, and indomethacin had 5 mice. Arachidonic Acid (0.5 mg in 20 μl of acetone:ethanol/1:1) was applied topically to the anterior and posterior surfaces of the right ear of each mice. Test substances (in vehicle) and vehicle, as listed in Table 1 were similarly applied 30 min before and 15 min after arachidonic acid application. The thickness of the right ear and the left ear was measured and the difference calculated as an indication of the inflammation in the right ear. Ear swelling was measured by a Dyer model micrometer gauge at 60 and 90 minutes after arachidonic acid application as an index of inflammation. Percent inhibition was calculated according to the formula: Ic−It/Ic×100, where Ic and It refers to increase of ear thickness (mm) in control and treated mice, respectively. An ANOVA was done, and if p<0.05, a Dunnett's t test was employed to calculate significant difference between vehicle control and test compound treated groups. […]

[5] = tested on: tail flick response to heat stimulus (49° C. water bath); experiment: Tail flick test in mice (oral administration); type: in vivo
Procedure: Tail flick test is a test of the pain response in animals. Tail flick test is used in basic pain research and to measure the effectiveness of analgesics, by observing the tail flick reaction to heat in an animal. This test assesses the nociceptive response to a local pain stimulus, and the ability of a drug to inhibit this response.
Vehicle control (water) and test compound diethyl(2-cyanoethyl)phosphonate in water were administered by oral gavage to mice with a volume of 10 mL/kg, twice, at 60 and 15 minutes before the first tail flick measurement. The test compound was administered at a dosage of 10, 30, or 100 mg/kg in water. The positive control compound morphine was administered by subcutaneous injection at 8 mg/kg with a volume of 8 mL/kg, at 15 minutes before the first tail flick measurement. Each group had 10 mice.
The response of mice to heat stimulus was evaluated by measuring the time of tail-flick or tail-flick latency from 49° C. water bath. Briefly, the animal was placed in a restrainer with its tail hanging down. Approximately 2 inches of the tail was immersed in a beaker of water at 38±1° C. for about 30 seconds, and this was done twice to acclimate the animal to the procedure.
Subsequently, approximately 2 inches of the tail was immersed in a beaker of water at 49±1° C., at which point a timer was started.
Tail flick measurements were made 60, 80, 100, and 120 minutes post administration of the first dosage of test compound. An ANOVA was done, and if p<0.05, a Dunnett's t test was employed to calculate significant difference between vehicle control and test compound treated groups. A pairwise Student's t test was used to calculate differences between the morphine group and the control group. […] Analysis with p-values <0.05 is considered significant.

[6] = tested on: IL-6, TNFα, IFNγ, MIP-2 and RANTES; experiment: Pro-inflammatory cytokine release in rat challenged in vivo with lipopolysaccharide; conditions: given orally to rat, then lipopolysaccharide challenge in vivo

CCOP(=O)(CCC#N)OCC [Diethyl (2-cyanoethyl) phosphonate, Diethyl(2-cyanoethyl)phosphonate]
Licks per min (Between 0-10 min) ([1]; 375 mM topical BID (paw submerged), early phase): 4.0 Licks per min
Licks per min (Between 10-40 min) ([1]; 375 mM topical BID (paw submerged), late phase): 1.1 Licks per min
Difference in the number of events vs control ([1]; 375 mM topical, early phase 0-10 minutes): no statistically significant difference
Reduction in the number of events vs vehicle ([1]; 375 mM topical, late phase 10-40 minutes): statistically significant (p<0.05) reduction
Paw licking events after topical application alone ([1]; topical application without injection of formalin): negligible number of paw licking events
Licks per min (Between 0-10 min) ([2]; 100 mg/kg oral BID, early phase): 3.1 Licks per min
Licks per min (Between 10-40 min) ([2]; 100 mg/kg oral BID, late phase): 0.59 Licks per min
Duration of efficacy ([2]; 100 mg/kg oral BID, after 40 minutes): did not last after 40 minutes
Difference in the number of events vs control ([2]; 100 mg/kg oral BID, early phase 0-10 minutes): no statistically significant difference
Reduction in the number of events vs vehicle ([2]; 100 mg/kg oral BID, late phase 10-40 minutes): statistically significant (p<0.05) reduction
% Inhibition of ear swelling ([3]; 10 mg/kg intraperitoneally at 1 hour and 15 minutes before arachidonic acid): −8%
% Inhibition of ear swelling ([3]; 30 mg/kg intraperitoneally at 1 hour and 15 minutes before arachidonic acid): 0%
% Inhibition of ear swelling ([3]; 100 mg/kg intraperitoneally at 1 hour and 15 minutes before arachidonic acid): 34%
% Inhibition of ear swelling ([3]; 100 mg/kg intraperitoneally at 1 hour and 15 minutes before arachidonic acid, listed as tested compound): 37%
Anti-inflammatory activity in mouse ear swelling model ([4]; applied topically, inflammation induced by arachidonic acid): anti-inflammatory
% Inhibition of ear swelling ([4]; topical, 375 mM in acetone:ethanol (1:1), 20 μL (1.4 mg/ear) applied twice, 90 minutes after arachidonic acid): 55%
Tail flick latency compared with vehicle-treated mice ([5]; 30 mg/kg oral, given twice, measured at 60, 80, 100, 120 minutes, FIG. 1): statistically significant tail flick latency at 60 and 80 minutes
Tail flick latency compared with vehicle-treated mice ([5]; 100 mg/kg oral, given twice, measured at 60, 80, 100, 120 minutes, FIG. 1): statistically significant tail flick latency at 60 and 100 minutes
Inhibition of pro-inflammatory cytokine release (IL-6, TNFα, IFNγ, MIP-2 and RANTES) [6]: effective in inhibiting pro-inflammatory cytokine release

CN1CC[C@]23c4c5ccc(O)c4O[C@H]2[C@@H](O)C=C[C@H]3[C@H]1C5 [Morphine, morphine, reference compound]
Licks per min (Between 0-10 min) ([1]; mouse, in vivo): 2.5 Licks per min
Licks per min (Between 10-40 min) ([1]; mouse, in vivo): 0.53 Licks per min
Reduction in the number of events vs vehicle ([1]; mouse, in vivo): statistically significant (p<0.05) reductions
Duration of efficacy ([2]; mouse, in vivo): did not last after 40 minutes
Licks per min (Between 0-10 min) ([2]; mouse, in vivo): 2.1 Licks per min
Licks per min (Between 10-40 min) ([2]; mouse, in vivo): 0.47 Licks per min
Reduction in the number of events vs vehicle ([2]; mouse, in vivo): statistically significant (p<0.05) reductions
Tail flick latency compared with vehicle-treated mice ([5]; mouse, in vivo): statistically significant tail flick latency at all measured time points
